Results on 23 compounds are retold here after PubChem BioAssay (NCI).

Assay in all cases: NCI-60 cell line screen, 48 h
Assay [1] has as its system A498 renal.
Assay [2] deals with HL-60(TB) leukemia.
In assay [3] the test system is LOX IMVI melanoma.
Assay [4] concerns MALME-3M melanoma.
In assay [5] the test system is NCI/ADR-RES ovarian.
The test system of assay [6] is OVCAR-3 ovarian.
Assay [7] relates to SF-295 CNS.
For assay [8], the system named is SK-MEL-5 melanoma.
In assay [9] the test system is SK-OV-3 ovarian.
Assay [10] deals with SN12C renal.
Assay [11] deals with T-47D breast.
In assay [12] the test system is TK-10 renal.
Assay [13] relates to UACC-257 melanoma.

Values joined by “and” are separate entries in the source; they are usually repeats but may differ in a detail not shown here. Equal values may be shown once.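 Compound exposure: 48 hours, 5 concentrations, 96-well plates. GI50: concentration for 50% inhibition of growth. TGI denotes the concentration required for complete inhibition of growth.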 Some results are limits rather than exact numbers.

As to `COc1ccc(C(CC2(c3ccc(OC)cc3)SCCCS2)NC(C)=O)cc1` (stereo not drawn), the TGI in assay [1] is more than 100 µM; in assay [2], more than 100 µM; in [3] it was more than 100 µM; in [4], more than 100 µM; in [5], 73.4 µM; in assay [6] it was more than 100 µM. Besides, the TGI was more than 100 µM in assay [7]; 37.7 µM in [8]; more than 100 µM in assay [9]; 96.8 µM in [10]; 66.5 µM in assay [11]; more than 100 µM in assay [12]. The compound further gave a TGI in [13] of 70.2 µM.

Consider `CC1=NN(c2cccc(Cl)c2)C2(SCC(=O)N2c2nc3ccccc3s2)C1=CC=Cc1ccccc1` (stereo not drawn), for which the TGI was 61.9 µM in [1]; 3.04 µM in assay [2]; more than 100 µM in [3]; more than 100 µM in assay [5]; more than 100 µM in [6]; more than 100 µM in assay [7]. The TGI in assay [8] is 47 µM; in [9] it was 68.5 µM; in assay [11], more than 100 µM; in assay [12] it was more than 100 µM; in [13], more than 100 µM.

Turning to `Cc1ccc(O)c(C(c2cccc(C(c3cc(C)ccc3O)c3cc(C)ccc3O)c2)c2cc(C)ccc2O)c1`, the TGI in assay [1] is 2.97 µM; in [2], 5.31 µM; in [4], 3.77 µM; in assay [5] it was 7.66 µM; in assay [6], 4.35 µM; in assay [7], 3.91 µM. The TGI in assay [8] came to 3.93 µM; in [9], 3.42 µM; in assay [10] it was 3.4 µM; in [11], 4.45 µM; in assay [12], 3.25 µM; in [13], 3.86 µM.

In the case of `Oc1c(Br)cc(/C=C/c2ccnc(/C=C/c3cc(Br)c(O)c(Br)c3)c2)cc1Br`, the TGI is 54.4 µM in assay [1]; 60.6 µM in assay [2]; more than 100 µM in assay [3]; 92.6 µM in assay [5]; 53.1 µM in [6]; more than 100 µM in assay [7]. For the same compound, the TGI is 41 µM in [8]; more than 100 µM in [9]; more than 100 µM in assay [10]; 52.1 µM in [11]; 75 µM in assay [12]; 66.7 µM in assay [13].

For the compound `CCN1CCC(O)(c2ccc(Oc3ccc(Cl)cc3)cc2)C(C(=O)c2ccc(Oc3ccc(Cl)cc3)cc2)C1` (stereo not drawn), the TGI in assay [1] came to 23.4 µM; in assay [2], 4.46 µM; in assay [3], 16.5 µM; in [4] it was 35.6 µM; in assay [5] it was 39.9 µM; in assay [7] it was 27.4 µM. Moreover, the TGI in assay [8] stood at 24.7 µM; in assay [9] it was 38.9 µM; in assay [10] it was 26.9 µM; in assay [11] it was 36.6 µM; in [12], 23 µM; in assay [13], 27.1 µM.

Consider `CCOC(=O)C1(C#N)OC(=O)c2cnccc21` (stereo not drawn), for which the TGI in assay [1], in assay [2], in assay [3], in assay [4], in assay [5] and in [6] was more than 100 µM throughout. The TGI in assay [7], in [9], in assay [10], in [11] and in assay [13] was more than 100 µM in each case.

Regarding `CC1=NN(c2nc(N)nc(CN3CCOCC3)n2)C(C)(C)C1`, the TGI in assay [1] was more than 100 µM; in [2] it was 30.1 µM; in assay [3], 28.5 µM; in [5], more than 100 µM; in assay [6], more than 100 µM; in assay [7], more than 100 µM. Besides, the TGI in assay [8], in assay [9], in assay [10], in assay [11], in assay [12] and in assay [13] was more than 100 µM in each case.

Consider `N#CC12C(=O)N3C(=NC(c4ccco4)NC3c3ccco3)C1(C#N)C(c1ccco1)NC1=C2CCCC1` (stereo not drawn), for which the TGI in assay [1], in assay [2], in assay [3], in assay [4], in assay [5] and in [7] was more than 100 µM each time. Moreover, the TGI in [8], in [9], in [10], in assay [11], in assay [12] and in [13] was more than 100 µM in each case.

Consider `C=CC(=O)Nc1ccc(NC(=O)C=C)c2c1C(=O)c1ccccc1C2=O`, for which the TGI in assay [1] is more than 100 µM; in assay [2] it was 24.7 µM; in [3] it was 47.4 µM; in assay [4] it was more than 100 µM; in [5], more than 100 µM; in assay [6] it was more than 100 µM. For the same compound, the TGI in assay [7] is 49.8 µM; in [8], more than 100 µM; in assay [10], more than 100 µM; in assay [11], more than 100 µM; in assay [12], 62.5 µM; in [13], more than 100 µM.

Regarding `c1csc(-c2nn3c(C45CC6CC(CC(C6)C4)C5)nnc3s2)c1`, the TGI in [1], in [2], in assay [3], in assay [4], in [5] and in assay [6] was more than 100 µM throughout. Further, the TGI in [7], in assay [8], in assay [9], in assay [10], in [11] and in [13] was more than 100 µM in each case.

On to `O=C1/C(=C\c2ccc(Cl)cc2)N=C(c2ccccc2)N1n1c(=O)cn[nH]c1=S`, for which the TGI in [1] was more than 100 µM; in assay [2] it was 64.6 µM; in assay [3] it was 65.3 µM; in [4] it was more than 100 µM; in assay [5], more than 100 µM; in assay [6], 76.2 µM. Further, the TGI in assay [7] was more than 100 µM; in assay [8], 55.3 µM; in [9], more than 100 µM; in assay [11] it was 28.6 µM; in [13], more than 100 µM.

`Cc1ccc2c(=O)cc(-c3sccc3C)[nH]c2n1`: the TGI in assay [1] was more than 35 µM; in assay [2] it was 0.743 µM; in assay [3], more than 38.1 µM; in assay [4], more than 69.1 µM; in [5], 0.693 µM; in assay [6], more than 100 µM. For the same compound, the TGI in assay [7] is more than 100 µM; in [8], 3.88 µM; in assay [9] it was more than 100 µM; in assay [10] it was more than 47.2 µM; in assay [11], more than 100 µM; in assay [12], more than 100 µM.

With `COc1ccc(C2SC(N)=Nc3c2c(C)nn3C(=O)c2ccccc2O)cc1OC` (stereo not drawn), the TGI in assay [1], in assay [2], in assay [3], in [4], in assay [5] and in [6] was more than 10 µM throughout. Further, the TGI in [7], in assay [9], in assay [10], in assay [11], in assay [12] and in assay [13] was more than 10 µM each time.

Take `COC(=O)c1c([N+](=O)[O-])ncn1[C@H]1OC[C@@H](OC(C)=O)[C@@H](OC(C)=O)[C@@H]1OC(C)=O`: the TGI in assay [1], in assay [2], in [3], in [4], in assay [5] and in [6] was more than 100 µM each time. The TGI in [7], in [9], in assay [10], in [11], in assay [12] and in [13] was more than 100 µM throughout.

As for `CC1=C(C(=O)OC2CC3CCC2(C)C3(C)C)C2Nc3ccccc3N(C)C2O1` (stereo not drawn), the TGI in [1] is 18.9 µM; in assay [2], 4.97 µM; in assay [3], 6.12 µM; in [5], 12.6 µM; in [6] it was 11.9 µM; in [7], 3.04 µM. Moreover, the TGI in [8] turned out to be 3.53 µM; in assay [9] it was 14.5 µM; in [10], 4.25 µM; in [11], 11.8 µM; in [12], 17.4 µM; in [13] it was 3.3 µM.

For the compound `CC1OC(OC2C(OC(=O)[C@]34CCC(C)(C)C[C@H]3C3=CC[C@@H]5[C@@]6(C)CC[C@H](OC7OC(C(=O)O)C(O)C(O)C7O)C(C)(C)[C@@H]6CC[C@@]5(C)[C@]3(C)C[C@H]4O)OCC(O)C2O)C(O)C(O)C1OC1OCC(O)C(O)C1O` (stereo partly drawn), the TGI in assay [1] was 6.22 µM and 3.63 µM; in assay [2] it was 30.5 µM and 26.9 µM; in assay [3], 30.9 µM and 29.5 µM; in assay [4], 27.8 µM and 25.6 µM; in assay [5] it was 27.1 µM and 19 µM; in assay [6], 32.2 µM and 29.1 µM. The TGI in [7] was 29.6 µM and 22.1 µM; in assay [8], 30.5 µM and 34.7 µM; in assay [9] it was 33.1 µM and 32 µM; in assay [10], 16 µM and 6.05 µM; in assay [11] it was 96.2 µM and 30.6 µM; in [13], 32.6 µM and 34.1 µM. In assay [5], the GI50 was 13 µM and 5.11 µM.

As for `O=c1c2cc(-c3ccccc3)cnc2sn1-c1ccc(Br)cc1`, the TGI in [1], in [2], in assay [4], in assay [5], in assay [6] and in [7] was more than 100 µM each time. In addition, the TGI in assay [9], in assay [10], in assay [11] and in [13] was more than 100 µM in each case.

As to `COc1cc2c(cc1OC)OC(c1c(OC)ccc(OC)c1O)CC2` (stereo not drawn), the TGI in assay [1] is more than 100 µM; in [2] it was 69.4 µM; in assay [3], more than 100 µM; in assay [4], more than 100 µM; in assay [5] it was more than 100 µM; in assay [6] it was more than 100 µM. The TGI in [7], in assay [8], in assay [9], in [11], in assay [12] and in [13] was more than 100 µM throughout.

Consider `CCOC(=O)C(C(=O)OCC)=C1SC(=Nc2ccccc2)C(=Nc2ccccc2)N1c1ccccc1`, for which the TGI in assay [1], in [2], in assay [4], in assay [5], in [6] and in assay [7] was more than 100 µM each time. Moreover, the TGI in assay [8], in assay [9], in assay [10] and in assay [11] was more than 100 µM throughout.

As to `CCOC(=O)c1nc2cc(C(F)(F)F)ccc2nc1Oc1ccc(C#N)cc1`, the TGI in [1], in assay [2], in assay [3], in [4], in [5] and in assay [6] was more than 100 µM in each case. Also, the TGI in assay [7], in [8], in assay [10], in [11], in assay [12] and in [13] was more than 100 µM each time.

Consider `O=C(Nc1ccc(C(F)(F)F)cc1)NC(F)(F)F`, for which the TGI in assay [1], in assay [2], in assay [3], in assay [5], in assay [8] and in assay [9] was more than 100 µM in each case. Besides, the TGI in [10], in [11], in assay [12] and in assay [13] was more than 100 µM in each case.

For `CCOCCOCCOCc1nc(C#N)c(N)o1`, the TGI in assay [1], in assay [2], in [3], in [5], in [6] and in [7] was more than 100 µM throughout. The TGI in [8], in assay [9], in assay [10], in [11], in assay [12] and in [13] was more than 100 µM throughout.

In the case of `CC1CC(N)=C(C#N)C1(C#N)C#N` (stereo not drawn), the TGI in assay [1], in [2], in assay [3], in [4], in [5] and in [7] was more than 100 µM in each case. The TGI in assay [9], in assay [10], in assay [11], in assay [12] and in [13] was more than 100 µM in each case.
